Assay [1] addresses Bone morphogenetic protein receptor type-1B (Homo sapiens, UniProt O00238).
Assay [2] concerns the target Dual specificity tyrosine-phosphorylation-regulated kinase 1A (Homo sapiens, UniProt Q13627).
Assay [3] deals with T1, Ephrin type-B receptor 3 (Homo sapiens, UniProt P54753).
T1 sequence (P54753 whole entry): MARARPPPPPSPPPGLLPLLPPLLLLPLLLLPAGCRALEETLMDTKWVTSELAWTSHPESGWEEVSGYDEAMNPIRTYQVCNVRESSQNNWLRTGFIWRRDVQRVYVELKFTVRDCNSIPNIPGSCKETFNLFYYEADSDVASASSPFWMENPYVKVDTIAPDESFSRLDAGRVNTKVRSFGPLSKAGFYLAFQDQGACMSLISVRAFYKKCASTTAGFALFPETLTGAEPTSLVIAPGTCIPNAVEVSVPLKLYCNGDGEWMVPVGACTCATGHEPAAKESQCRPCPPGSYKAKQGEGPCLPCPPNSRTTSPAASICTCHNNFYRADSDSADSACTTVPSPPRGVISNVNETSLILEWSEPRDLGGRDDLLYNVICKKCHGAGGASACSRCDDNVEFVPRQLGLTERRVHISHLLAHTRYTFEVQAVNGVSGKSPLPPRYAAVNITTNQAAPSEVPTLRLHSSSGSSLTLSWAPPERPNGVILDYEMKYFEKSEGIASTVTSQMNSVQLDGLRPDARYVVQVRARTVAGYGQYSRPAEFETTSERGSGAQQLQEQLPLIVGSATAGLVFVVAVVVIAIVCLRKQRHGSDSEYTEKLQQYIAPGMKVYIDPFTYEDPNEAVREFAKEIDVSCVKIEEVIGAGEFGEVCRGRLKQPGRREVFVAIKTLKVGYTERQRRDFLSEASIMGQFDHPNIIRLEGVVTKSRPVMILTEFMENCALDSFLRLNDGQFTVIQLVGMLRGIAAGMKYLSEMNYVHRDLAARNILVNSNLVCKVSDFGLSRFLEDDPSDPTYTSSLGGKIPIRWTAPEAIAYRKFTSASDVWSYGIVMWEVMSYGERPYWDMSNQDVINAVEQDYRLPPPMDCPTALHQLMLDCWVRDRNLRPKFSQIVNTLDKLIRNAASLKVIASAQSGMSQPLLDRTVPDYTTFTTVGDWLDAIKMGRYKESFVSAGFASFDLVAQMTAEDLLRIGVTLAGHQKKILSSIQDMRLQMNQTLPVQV

The target in assay [4] is Mitogen-activated protein kinase kinase kinase kinase 5 (Homo sapiens, UniProt Q9Y4K4).
Assay [5] deals with T2, Serine/threonine-protein kinase Nek1 (Homo sapiens, UniProt Q96PY6).
T2 sequence (Q96PY6 whole entry): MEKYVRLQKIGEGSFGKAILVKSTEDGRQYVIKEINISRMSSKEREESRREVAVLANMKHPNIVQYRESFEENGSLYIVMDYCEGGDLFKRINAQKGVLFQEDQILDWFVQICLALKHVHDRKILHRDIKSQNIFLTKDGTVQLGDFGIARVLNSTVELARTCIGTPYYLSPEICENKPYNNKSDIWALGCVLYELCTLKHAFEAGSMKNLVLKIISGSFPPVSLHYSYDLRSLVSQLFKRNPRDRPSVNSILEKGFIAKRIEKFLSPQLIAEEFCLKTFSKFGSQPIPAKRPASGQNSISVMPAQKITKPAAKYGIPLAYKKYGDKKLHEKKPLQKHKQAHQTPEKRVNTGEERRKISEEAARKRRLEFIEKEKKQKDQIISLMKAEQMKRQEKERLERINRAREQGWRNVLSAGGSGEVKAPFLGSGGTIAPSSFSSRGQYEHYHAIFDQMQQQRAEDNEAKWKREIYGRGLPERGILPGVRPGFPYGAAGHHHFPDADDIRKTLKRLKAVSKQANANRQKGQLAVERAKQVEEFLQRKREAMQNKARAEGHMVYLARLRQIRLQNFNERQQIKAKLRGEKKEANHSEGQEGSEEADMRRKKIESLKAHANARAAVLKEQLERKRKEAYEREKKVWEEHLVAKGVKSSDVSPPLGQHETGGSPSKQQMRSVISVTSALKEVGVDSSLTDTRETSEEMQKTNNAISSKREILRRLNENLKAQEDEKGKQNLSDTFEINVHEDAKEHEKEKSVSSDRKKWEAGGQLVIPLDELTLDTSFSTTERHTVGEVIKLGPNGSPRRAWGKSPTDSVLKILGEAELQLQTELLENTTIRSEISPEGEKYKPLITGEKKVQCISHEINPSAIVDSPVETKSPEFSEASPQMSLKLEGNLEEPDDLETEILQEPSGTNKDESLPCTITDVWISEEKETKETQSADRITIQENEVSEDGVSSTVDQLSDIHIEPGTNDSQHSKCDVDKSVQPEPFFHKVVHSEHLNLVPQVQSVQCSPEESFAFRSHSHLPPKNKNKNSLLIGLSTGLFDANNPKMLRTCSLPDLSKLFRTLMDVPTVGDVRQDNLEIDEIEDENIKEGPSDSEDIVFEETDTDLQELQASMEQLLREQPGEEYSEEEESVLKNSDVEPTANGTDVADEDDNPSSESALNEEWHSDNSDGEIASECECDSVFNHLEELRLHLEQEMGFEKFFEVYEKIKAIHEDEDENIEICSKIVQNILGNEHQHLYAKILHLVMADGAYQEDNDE

Assay [6] addresses T3, Non-receptor tyrosine-protein kinase TNK1 (Homo sapiens, UniProt Q13470).
T3 sequence (Q13470 whole entry): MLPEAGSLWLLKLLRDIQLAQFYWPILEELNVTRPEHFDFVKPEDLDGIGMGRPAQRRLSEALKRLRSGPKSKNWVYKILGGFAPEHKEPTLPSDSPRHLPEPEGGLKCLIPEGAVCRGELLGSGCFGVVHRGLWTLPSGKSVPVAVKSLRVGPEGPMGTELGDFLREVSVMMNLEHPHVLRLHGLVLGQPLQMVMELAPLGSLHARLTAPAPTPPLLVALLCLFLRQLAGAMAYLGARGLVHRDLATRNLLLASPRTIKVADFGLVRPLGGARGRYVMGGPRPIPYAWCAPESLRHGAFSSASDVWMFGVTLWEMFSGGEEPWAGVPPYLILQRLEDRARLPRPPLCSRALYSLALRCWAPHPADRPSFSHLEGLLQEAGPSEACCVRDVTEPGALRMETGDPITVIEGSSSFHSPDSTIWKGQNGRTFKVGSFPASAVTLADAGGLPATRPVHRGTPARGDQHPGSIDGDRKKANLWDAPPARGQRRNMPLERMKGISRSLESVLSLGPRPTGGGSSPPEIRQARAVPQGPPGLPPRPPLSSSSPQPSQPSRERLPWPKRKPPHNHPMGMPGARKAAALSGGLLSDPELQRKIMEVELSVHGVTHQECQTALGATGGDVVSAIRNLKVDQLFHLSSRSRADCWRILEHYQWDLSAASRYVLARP

Calls of active or inactive are those of the source. For most assays here, no stated cut-off is given here; in the data, actives have a measured Kd and inactives only a lower limit. Some results are limits rather than exact numbers.

In general, Kd refers to the concentration at which binding is half-saturated.

Bone morphogenetic protein receptor type-1B, sequence (O00238 whole entry): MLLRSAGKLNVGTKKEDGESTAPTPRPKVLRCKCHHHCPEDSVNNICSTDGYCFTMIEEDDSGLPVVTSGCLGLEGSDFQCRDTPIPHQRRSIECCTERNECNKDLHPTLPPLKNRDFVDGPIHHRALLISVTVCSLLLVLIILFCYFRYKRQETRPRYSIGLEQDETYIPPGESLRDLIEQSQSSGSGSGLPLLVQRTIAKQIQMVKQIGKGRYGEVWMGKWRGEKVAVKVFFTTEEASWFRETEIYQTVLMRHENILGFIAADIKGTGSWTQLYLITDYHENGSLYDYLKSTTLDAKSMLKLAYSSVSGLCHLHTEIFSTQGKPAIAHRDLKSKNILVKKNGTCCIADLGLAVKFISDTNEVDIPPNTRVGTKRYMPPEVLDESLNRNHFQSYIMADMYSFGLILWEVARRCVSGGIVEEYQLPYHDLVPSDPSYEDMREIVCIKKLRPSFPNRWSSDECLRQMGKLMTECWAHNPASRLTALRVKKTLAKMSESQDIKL
Mitogen-activated protein kinase kinase kinase kinase 5, sequence (Q9Y4K4 whole entry): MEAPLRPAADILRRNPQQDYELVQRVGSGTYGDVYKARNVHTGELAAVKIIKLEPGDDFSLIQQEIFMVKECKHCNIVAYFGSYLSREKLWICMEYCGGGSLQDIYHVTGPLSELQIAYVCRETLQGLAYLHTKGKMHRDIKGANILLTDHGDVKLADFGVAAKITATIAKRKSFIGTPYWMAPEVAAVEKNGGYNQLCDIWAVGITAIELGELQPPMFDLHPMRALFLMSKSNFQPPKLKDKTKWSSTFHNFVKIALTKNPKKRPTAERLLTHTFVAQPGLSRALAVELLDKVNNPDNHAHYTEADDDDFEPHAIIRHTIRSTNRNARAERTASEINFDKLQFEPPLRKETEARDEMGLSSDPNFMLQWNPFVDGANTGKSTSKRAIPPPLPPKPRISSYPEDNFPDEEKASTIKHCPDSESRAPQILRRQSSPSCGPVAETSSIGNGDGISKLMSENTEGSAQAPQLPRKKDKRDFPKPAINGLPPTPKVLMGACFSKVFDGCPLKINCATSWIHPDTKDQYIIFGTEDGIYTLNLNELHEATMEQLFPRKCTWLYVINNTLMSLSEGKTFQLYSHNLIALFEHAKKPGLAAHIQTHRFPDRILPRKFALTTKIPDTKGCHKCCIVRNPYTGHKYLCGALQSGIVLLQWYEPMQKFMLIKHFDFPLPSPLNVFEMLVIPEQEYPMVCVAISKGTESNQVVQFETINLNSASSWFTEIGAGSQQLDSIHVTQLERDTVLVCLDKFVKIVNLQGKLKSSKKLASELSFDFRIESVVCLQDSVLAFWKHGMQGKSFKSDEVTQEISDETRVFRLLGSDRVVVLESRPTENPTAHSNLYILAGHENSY

Regarding `CC1(COc2ccc3c(c2)ncn3-c2ccc3cccc(N4CCC(N)CC4)c3n2)COC1` [CRENOLANIB], the Kd in assay [1] was > 30 µM (inactive); in assay [2], 4.97 µM (active); in assay [3] it was > 30 µM (inactive); in assay [4], 0.455 µM (active); in assay [5], > 30 µM (inactive); in assay [6] it was > 30 µM (inactive).

As for `Cn1c(=O)c(F)c(Nc2ccc(I)cc2F)c2c(=O)n(C[C@@H](O)CO)cnc21` [TAK-733], the Kd in assay [1], in assay [2], in assay [3], in assay [4], in assay [5] and in assay [6] was > 30 µM (inactive) each time.

Consider `COc1cc2ncnc3c2cc1OCCCCCN(C)Cc1ccc(Br)cc1N3` [JNJ-26483327], for which the Kd in assay [1], in assay [2], in assay [3], in assay [4], in assay [5] and in assay [6] was > 30 µM (inactive) each time.

Consider `CCOc1ccn(-c2ccc(F)cc2)c(=O)c1C(=O)Nc1ccc(Oc2ccnc(N)c2Cl)c(F)c1` [BMS-777607], for which the Kd in assay [1], in assay [2], in assay [3], in assay [4], in assay [5] and in assay [6] was > 30 µM (inactive) throughout.

For the compound `FC(F)(F)c1ccc(CNc2ccc(Cc3c[nH]c4ncc(Cl)cc34)cn2)cn1` [PEXIDARTINIB], the Kd in assay [1], in assay [2], in assay [3], in assay [4], in assay [5] and in assay [6] was > 30 µM (inactive) each time.

Take `COc1ccc2c(OCc3nnc4ccc(-c5ccccc5)nn34)ccnc2c1` [AMG-208]: the Kd in assay [1], in assay [2], in assay [3], in assay [4], in assay [5] and in assay [6] was > 30 µM (inactive) each time.

In the case of `Cc1cc(-c2cc(OC(=O)c3ccccc3)ccc2Cl)cc2nnc(Nc3ccc(OCCN4CCCC4)cc3)nc12` [TG100-801], the Kd in assay [1], in assay [2], in assay [3], in assay [4], in assay [5] and in assay [6] was > 30 µM (inactive) throughout.

With `O=C(NC[C@H](O)CO)c1ccncc1Nc1ccc(I)cc1F` [PIMASERTIB], the Kd in assay [1], in assay [2], in assay [3], in assay [4], in assay [5] and in assay [6] was > 30 µM (inactive) in each case.

Consider `NC(=O)c1ccc(N(C(N)=O)c2c(F)cccc2F)nc1-c1ccc(F)cc1F` [VX-702], for which the Kd in assay [1], in assay [2], in assay [3], in assay [4], in assay [5] and in assay [6] was > 30 µM (inactive) each time.

On to `CC[C@@](C)(Nc1ccnc(-c2c[nH]c3ncccc23)n1)C(=O)NCC(F)(F)F` [DECERNOTINIB], for which the Kd is > 30 µM (inactive) in assay [1]; > 30 µM (inactive) in assay [2]; > 30 µM (inactive) in assay [3]; > 30 µM (inactive) in assay [4]; > 30 µM (inactive) in assay [5]; 0.046 µM in assay [6].

Regarding `CC(C)(O)CC(=O)NCCn1ccc2ncnc(Nc3ccc(Oc4cccc(C(F)(F)F)c4)c(Cl)c3)c21` [TAK-285], the Kd is 1.63 µM in assay [1]; > 30 µM (inactive) in assay [2]; > 30 µM (inactive) in assay [3]; > 30 µM (inactive) in assay [4]; > 30 µM (inactive) in assay [5]; > 30 µM (inactive) in assay [6].

`CC(C)CC(=O)Nc1[nH]nc2c1CN(C(=O)C1CCN(C)CC1)C2(C)C` [PHA-793887]: the Kd in assay [1], in assay [2], in assay [3], in assay [4], in assay [5] and in assay [6] was > 30 µM (inactive) each time.

On to `COc1cc2ncnc(Nc3ccc(O)cc3)c2cc1OC` [WHI-P131], for which the Kd in assay [1], in assay [2], in assay [3], in assay [4], in assay [5] and in assay [6] was > 30 µM (inactive) each time.

For `CNC(=O)c1cc(COc2nnc(Nc3ccc(Cl)cc3)c3ccoc23)ccn1` [TELATINIB], the Kd in assay [1], in assay [2], in assay [3], in assay [4], in assay [5] and in assay [6] was > 30 µM (inactive) throughout.

On to `S=C(NCc1ccc2c(c1)OCO2)N1CCN(c2ncnc3c2oc2ccccc23)CC1` [AMUVATINIB], for which the Kd in assay [1], in assay [2], in assay [3], in assay [4], in assay [5] and in assay [6] was > 30 µM (inactive) in each case.

The values above are taken from ChEMBL document CHEMBL3991601, “The target landscape of clinical kinase drugs” (Science, 2017).
